Measured values from ChEMBL document CHEMBL3244272, “Folate antagonists. 15. 2,3-Diamino-6-(2-naphthylsulfonyl)quinazoline and related 2,4-diamino-6-[(phenyl and naphthyl)sulfinyl and sulfonyl]quinazolines, a potent new class of antimetabolites with phenomenal antimalarial activity” (J Med Chem, 1979).
Converted amounts (≈) assume the structure as drawn. The source made the active and inactive calls. The rule behind the calls is not given here.

Assays:
Plasmodium berghei [1] = experiment: Antimalarial activity against trophozoite-induced Plasmodium berghei infected in mouse assessed as change in mean survival time at 80 mg/kg, sc single dose after 72 hrs of infection; assay type: functional; details: route subcutaneous
Plasmodium gallinaceum [2] = experiment: Antimalarial activity against sporozoite-induced Plasmodium gallinaceum infected in chick assessed as change in cured at 30 mg/kg, sc single dose; assay type: functional; details: route subcutaneous
Enterococcus faecalis = experiment: Antibacterial activity against Streptococcus faecalis MGH-2 assessed as growth inhibition; assay type: functional
Plasmodium gallinaceum [3] = experiment: Antimalarial activity against trophozoite-induced Plasmodium gallinaceum infected in chick assessed as cured at 120 mg/kg, sc single dose; assay type: functional, organism-based; set-up: dose 120 mg/kg
Plasmodium berghei [4] = experiment: Antimalarial activity against trophozoite-induced Plasmodium berghei infected in mouse assessed as change in mean survival time at 160 mg/kg, sc single dose after 72 hrs of infection; assay type: functional; details: route subcutaneous
Pseudomonas aeruginosa = experiment: Antibacterial activity against Pseudomonas aeruginosa 28 assessed as growth inhibition; assay type: functional
Shigella sonnei = experiment: Antibacterial activity against Shigella sonnei C-10 assessed as growth inhibition; assay type: functional
Staphylococcus aureus [5] = experiment: Antibacterial activity against Staphylococcus aureus UC-76 assessed as growth inhibition; assay type: functional
Plasmodium gallinaceum [6] = experiment: Antimalarial activity against sporozoite-induced Plasmodium gallinaceum infected in chick assessed as change in cured at 15 mg/kg, sc single dose; assay type: functional; details: route subcutaneous
[7] = tested on: Mycobacterium tuberculosis; experiment: Antibacterial activity against Mycobacterium tuberculosis H37Rv assessed as growth inhibition; assay type: functional
Escherichia coli = experiment: Antibacterial activity against Escherichia coli Vogel assessed as growth inhibition; assay type: functional
Plasmodium berghei [8] = experiment: Antimalarial activity against trophozoite-induced Plasmodium berghei infected in mouse assessed as change in mean survival time at 10 mg/kg, sc single dose after 72 hrs of infection; assay type: functional; details: route subcutaneous
Plasmodium berghei [9] = experiment: Antimalarial activity against trophozoite-induced Plasmodium berghei infected in mouse assessed as change in mean survival time at 40 mg/kg, sc single dose after 72 hrs of infection; assay type: functional; details: route subcutaneous
Staphylococcus aureus [10] = experiment: Antibacterial activity against Staphylococcus aureus S18713 assessed as growth inhibition; assay type: functional
Plasmodium gallinaceum [11] = experiment: Antimalarial activity against trophozoite-induced Plasmodium gallinaceum infected in chick assessed as mean survival time at 120 mg/kg, sc single dose (reference value: 4 days); assay type: functional; details: route subcutaneous
Plasmodium berghei [12] = experiment: Antimalarial activity against trophozoite-induced Plasmodium berghei infected in sc dosed mouse assessed as minimum curative dose; assay type: functional
Plasmodium berghei [13] = experiment: Antimalarial activity against trophozoite-induced Plasmodium berghei infected in mouse assessed as change in mean survival time at 20 mg/kg, sc single dose after 72 hrs of infection; assay type: functional; details: route subcutaneous
Plasmodium gallinaceum [14] = experiment: Antimalarial activity against sporozoite-induced Plasmodium gallinaceum infected in chick assessed as change in cured at 60 mg/kg, sc single dose; assay type: functional; details: route subcutaneous
Plasmodium berghei [15] = experiment: Antimalarial activity against trophozoite-induced Plasmodium berghei infected in mouse assessed as change in mean survival time at 320 mg/kg, sc single dose after 72 hrs of infection; assay type: functional; details: route subcutaneous
Gallus gallus [16] = experiment: Toxicity in trophozoite-induced Plasmodium gallinaceum infected in chick assessed as death at 120 mg/kg, sc single dose measured within 48 hrs; assay type: organism-based; set-up: dose 120 mg/kg, route subcutaneous; details: chicken, in vivo
Plasmodium vivax [17] = experiment: Antimalarial activity against Plasmodium vivax New Guinea Chesson in po once daily dosed Owl monkey assessed as curative dose compound treated for 7 days; assay type: functional
Plasmodium vivax [18] = experiment: Antimalarial activity against Plasmodium vivax VietnamPalo Alto in po once daily dosed Owl monkey assessed as curative dose compound treated for 7 days; assay type: functional
Plasmodium falciparum [19] = experiment: Antimalarial activity against Plasmodium falciparum Vietnam Oak Knoll in po once daily dosed Owl monkey assessed as curative dose compound treated for 7 days; assay type: functional
Plasmodium falciparum [20] = experiment: Antimalarial activity against Plasmodium falciparum Vietnam Smith in po once daily dosed Owl monkey assessed as curative dose compound treated for 7 days; assay type: functional
Plasmodium falciparum [21] = experiment: Antimalarial activity against chloroquine-resistant, pyrimethamine-sensitive Plasmodium falciparum Vietnam Oak Knoll in Aotus monkey assessed as dose required to >50% cures compound treated for 7 days; assay type: functional
Plasmodium falciparum [22] = experiment: Antimalarial activity against Plasmodium falciparum Malayan Camp CH/Q infected in po once daily dosed Owl monkey assessed as curative dose compound treated for 7 days; assay type: functional
Plasmodium falciparum [23] = experiment: Antimalarial activity against chloroquine-sensitive, pyrimethamine-resistant Plasmodium falciparum Malayan Camp CH/Q infected in Aotus monkey assessed as dose required to >50% cures compound treated for 7 days; assay type: functional
Plasmodium gallinaceum [24] = experiment: Antimalarial activity against trophozoite-induced Plasmodium gallinaceum infected in chick assessed as cured at 160 mg/kg, sc single dose; assay type: functional, organism-based; set-up: dose 160 mg/kg
Gallus gallus [25] = experiment: Toxicity in trophozoite-induced Plasmodium gallinaceum infected in chick assessed as death at 160 mg/kg, sc single dose measured within 48 hrs; assay type: organism-based; set-up: dose 160 mg/kg, route subcutaneous; details: chicken, in vivo
Plasmodium gallinaceum [26] = experiment: Antimalarial activity against trophozoite-induced Plasmodium gallinaceum infected in chick assessed as mean survival time at 160 mg/kg, sc single dose (reference value: 4 days); assay type: functional; details: route subcutaneous
Plasmodium gallinaceum [27] = experiment: Antimalarial activity against trophozoite-induced Plasmodium gallinaceum infected in chick assessed as mean survival time at 40 mg/kg, sc single dose (reference value: 4 days); assay type: functional; details: route subcutaneous
Plasmodium gallinaceum [28] = experiment: Antimalarial activity against trophozoite-induced Plasmodium gallinaceum infected in chick assessed as cured at 2.5 mg/kg, sc single dose; assay type: functional, organism-based; set-up: dose 2.5 mg/kg
Gallus gallus [29] = experiment: Toxicity in trophozoite-induced Plasmodium gallinaceum infected in chick assessed as death at 80 mg/kg, sc single dose measured within 48 hrs; assay type: organism-based; set-up: dose 80 mg/kg, route subcutaneous; details: chicken, in vivo
Gallus gallus [30] = experiment: Toxicity in trophozoite-induced Plasmodium gallinaceum infected in chick assessed as death at 10 mg/kg, sc single dose measured within 48 hrs; assay type: organism-based; set-up: dose 10 mg/kg, route subcutaneous; details: chicken, in vivo
Plasmodium gallinaceum [31] = experiment: Antimalarial activity against trophozoite-induced Plasmodium gallinaceum infected in chick assessed as cured at 5 mg/kg, sc single dose; assay type: functional, organism-based; set-up: dose 5 mg/kg
Gallus gallus [32] = experiment: Toxicity in trophozoite-induced Plasmodium gallinaceum infected in chick assessed as death at 2.5 mg/kg, sc single dose measured within 48 hrs; assay type: organism-based; set-up: dose 2.5 mg/kg, route subcutaneous; details: chicken, in vivo
Plasmodium berghei [33] = experiment: Antimalarial activity against trophozoite-induced Plasmodium berghei infected in mouse assessed as change in mean survival time at 2.5 mg/kg, sc single dose after 72 hrs of infection; assay type: functional; details: route subcutaneous
Plasmodium berghei [34] = experiment: Antimalarial activity against trophozoite-induced Plasmodium berghei infected in mouse assessed as change in mean survival time at 5 mg/kg, sc single dose after 72 hrs of infection; assay type: functional; details: route subcutaneous
Plasmodium gallinaceum [35] = experiment: Antimalarial activity against trophozoite-induced Plasmodium gallinaceum infected in chick assessed as mean survival time at 10 mg/kg, sc single dose (reference value: 4 days); assay type: functional; details: route subcutaneous
Gallus gallus [36] = experiment: Toxicity in trophozoite-induced Plasmodium gallinaceum infected in chick assessed as death at 20 mg/kg, sc single dose measured within 48 hrs; assay type: organism-based; set-up: dose 20 mg/kg, route subcutaneous; details: chicken, in vivo
Plasmodium gallinaceum [37] = experiment: Antimalarial activity against trophozoite-induced Plasmodium gallinaceum infected in chick assessed as mean survival time at 5 mg/kg, sc single dose (reference value: 4 days); assay type: functional; details: route subcutaneous
Gallus gallus [38] = experiment: Toxicity in trophozoite-induced Plasmodium gallinaceum infected in chick assessed as death at 40 mg/kg, sc single dose measured within 48 hrs; assay type: organism-based; set-up: dose 40 mg/kg, route subcutaneous; details: chicken, in vivo
Plasmodium berghei [39] = experiment: Antimalarial activity against trophozoite-induced Plasmodium berghei infected in mouse assessed as change in mean survival time at 1.25 mg/kg, sc single dose after 72 hrs of infection; assay type: functional; details: route subcutaneous
Plasmodium gallinaceum [40] = experiment: Antimalarial activity against trophozoite-induced Plasmodium gallinaceum infected in chick assessed as mean survival time at 20 mg/kg, sc single dose (reference value: 4 days); assay type: functional; details: route subcutaneous
Gallus gallus [41] = experiment: Toxicity in trophozoite-induced Plasmodium gallinaceum infected in chick assessed as death at 5 mg/kg, sc single dose measured within 48 hrs; assay type: organism-based; set-up: dose 5 mg/kg, route subcutaneous; details: chicken, in vivo
Plasmodium gallinaceum [42] = experiment: Antimalarial activity against trophozoite-induced Plasmodium gallinaceum infected in chick assessed as mean survival time at 2.5 mg/kg, sc single dose (reference value: 4 days); assay type: functional; details: route subcutaneous

COc1cccc(S(=O)(=O)c2ccc3nc(N)nc(N)c3c2)c1
MST (Plasmodium berghei [1]): 12.5 days | MST (Plasmodium gallinaceum [2]): 0 days | MIC (Enterococcus faecalis): < 0.25 µg/mL | Activity (Plasmodium gallinaceum [3]): Active | MST (Plasmodium berghei [4]): 13.2 days | MIC (Pseudomonas aeruginosa): > 25 µg/mL | MIC (Shigella sonnei): > 25 µg/mL | MIC (Staphylococcus aureus [5]): 1 µg/mL (≈ 3.03 µM) | MST (Plasmodium gallinaceum [6]): 0 days | MIC [7]: 25 µg/mL (≈ 75.7 µM) | MIC (Escherichia coli): 2.5 µg/mL (≈ 7.57 µM) | MST (Plasmodium berghei [8]): 1.1 days | MST (Plasmodium berghei [9]): 8.9 days | MIC (Staphylococcus aureus [10]): 2 µg/mL (≈ 6.05 µM) | MST (Plasmodium gallinaceum [11]): 13.2 days | MCD (Plasmodium berghei [12]): 320 mg/kg | MST (Plasmodium berghei [13]): 3.9 days | MST (Plasmodium gallinaceum [14]): 0 days | MST (Plasmodium berghei [15]): 23.9 days | Activity (Gallus gallus [16]): Toxic

C=C[C@H]1CN2CC[C@H]1C[C@H]2[C@H](O)c1ccnc2ccc(OC)cc12.Cl [QUININE HYDROCHLORIDE]
CD90 (Plasmodium vivax [17]): 40 mg/kg | CD90 (Plasmodium vivax [18]): 40 mg/kg | CD90 (Plasmodium falciparum [19]): 80 mg/kg | CD90 (Plasmodium falciparum [20]): >80 mg/kg | Activity (Plasmodium falciparum [21]): 40 mg/kg | CD90 (Plasmodium falciparum [22]): 20 mg/kg | Activity (Plasmodium falciparum [23]): 80 mg/kg

COc1ccc(S(=O)(=O)c2ccc3nc(N)nc(N)c3c2)cc1
Activity (Plasmodium gallinaceum [24]): Active | MIC (Enterococcus faecalis): < 0.25 µg/mL | MIC (Pseudomonas aeruginosa): > 25 µg/mL | MIC (Shigella sonnei): 2.5 µg/mL (≈ 7.57 µM) | MIC (Staphylococcus aureus [5]): 2.5 µg/mL (≈ 7.57 µM) | MIC (Escherichia coli): 2.5 µg/mL (≈ 7.57 µM) | MST (Plasmodium berghei [8]): 4.9 days | Activity (Gallus gallus [25]): Toxic | MST (Plasmodium gallinaceum [26]): 14.8 days | MST (Plasmodium berghei [9]): 15.9 days | MIC (Staphylococcus aureus [10]): 2.5 µg/mL (≈ 7.57 µM) | MCD (Plasmodium berghei [12]): 20 mg/kg | MST (Plasmodium berghei [13]): 11.4 days

Nc1nc(N)c2cc([S+]([O-])c3ccc(Cl)cc3)ccc2n1 (stereo not given)
MIC (Enterococcus faecalis): < 0.25 µg/mL | MIC (Pseudomonas aeruginosa): > 25 µg/mL | MIC (Shigella sonnei): 20 µg/mL (≈ 62.7 µM) | MST (Plasmodium gallinaceum [27]): 27.5 days | Activity (Plasmodium gallinaceum [28]): Active | MIC (Staphylococcus aureus [5]): < 0.25 µg/mL | Activity (Gallus gallus [29]): Toxic | Activity (Gallus gallus [30]): Toxic | Activity (Plasmodium gallinaceum [31]): Active | Activity (Gallus gallus [32]): Toxic | MST (Plasmodium berghei [33]): 6 days | MST (Plasmodium berghei [34]): 4.8 days | MIC (Escherichia coli): 1.5 µg/mL (≈ 4.71 µM) | MST (Plasmodium berghei [8]): 7.3 days | MST (Plasmodium gallinaceum [35]): 23 days | Activity (Gallus gallus [36]): Toxic | Activity (Gallus gallus [25]): Toxic | MST (Plasmodium gallinaceum [37]): 15.8 days | MIC (Staphylococcus aureus [10]): < 0.25 µg/mL | Activity (Gallus gallus [38]): Toxic | MST (Plasmodium berghei [39]): 4.2 days | MCD (Plasmodium berghei [12]): 40 mg/kg | MST (Plasmodium gallinaceum [40]): 23 days | Activity (Gallus gallus [41]): Toxic | MST (Plasmodium gallinaceum [42]): 4 days
